Values after ≈ are worked out from the molar mass of the structure shown. Values joined by “and” are separate entries in the source; they are usually repeats but may differ in a detail not shown here. Identical values can stand only once.
Legend:
[1] = Plasma concentration of active ingredient after intravenous administration (PK parameters)
Description: (2) Plasma Concentration of Active Ingredient after Administration of Liposome Formulation
1) Animals used: ICR mice were used.
2) Breeding conditions: The mice were allowed to freely take chow and sterilized tap water.
3) Dose and grouping setting: A predetermined dose was intravenously administered. The intravenous dose was 5 mg/kg (n=3).
4) Formulation of dosing solution: The dosing solution was administered as a 5% glucose solution.
5) Administration method: Administration was performed via the tail vein through a syringe with an injection needle.
6) Evaluation item: Blood was collected over time, and the plasma concentration of the compound of the present invention was measured using LC/MS/MS.
7) Parameter analysis: For the plasma concentration of the compound of the present invention, area under the plasma concentration-time curve (AUC), systemic clearance (CLtot), elimination half-life (t½), and steady state distribution volume (Vdss) of the compound of the present invention were calculated by non-compartmental model analysis.

[2] = Tissue distribution test (plasma, liver, kidney, lung); conditions: ICR mice; for Kidney Concentration / Liver Concentration / Lung Concentration / Plasma Concentration / Kidney Kp / Liver Kp / Lung Kp: iv 5 mg/kg; for concentration at 0.5 h / concentration at 2 h / concentration at 24 h / Kp at 0.5 h / Kp at 2 h / Kp at 24 h: ICR, mouse, in vivo, iv, 5 mg/kg
Description: (3) Tissue Distribution of Active Ingredient after Administration of Liposome Formulation
(Tissue Distribution Test)
The compound of the present invention was intravenously administered at a dose of 5 mg/kg to ICR mice. […] Then, the liver, kidney, and lung were removed, and a 25% homogenate was prepared with distilled water. The obtained blood was centrifuged, and plasma was then obtained. Thereafter, each sample was measured using LC/MS/MS. The concentration value ratio (each tissue/plasma) obtained was used as a tissue Kp value.

[3] = test system: S. aureus ATCC700787; experiment: In vitro antibacterial activity (MIC), agar plate dilution; type: cell-based, Staphylococcus aureus
Description: (§1) A minimum inhibitory concentration was measured as in vitro antibacterial activity. The minimum inhibitory concentration (MIC: μg/ml) was measured according to the standard method of Japanese Society of Chemotherapy, by an agar plate dilution method using 1000 cfu/spot as an inoculum amount and a susceptibility disk medium as a test medium.
(§2) In the tables, a unit of a numerical value of inhibitory activity is μg/ml. In addition, in the tables, S. aureus represents Staphylococcus aureus and E. faecalis represents Gram-positive group D streptococci (enterococci) that are resident in a normal bacterial flora of a human intestinal tract, and can be causative bacteria of endocarditis and the like after surgery.

[4] = test system: S. aureus VRS1; experiment: as above; type: cell-based, Staphylococcus aureus; conditions: for minimum inhibitory concentration (MIC): S. aureus VRS1, 1000 cfu/spot
Description: as §1, §2

[5] = test system: E. faecalis SR1004; experiment: as above; type: cell-based; conditions: for minimum inhibitory concentration (MIC): E. faecalis SR1004, 1000 cfu/spot
Description: as §1, §2

[6] = test system: E. faecalis SR7914; experiment: as above; type: cell-based; conditions: for minimum inhibitory concentration (MIC): E. faecalis SR7914, 1000 cfu/spot
Description: as §1, §2

[7] = test system: E. faecium SR7940; experiment: as above; type: cell-based; conditions: for minimum inhibitory concentration (MIC): E. faecium SR7940, 1000 cfu/spot
Description: as §1, §2

[8] = test system: E. faecium SRM1101; experiment: as above; type: cell-based
Description: as §1, §2

[9] = test system: S. aureus ATCC25923; experiment: as above; type: cell-based, Staphylococcus aureus
Description: as §1, §2

[10] = ICR mice, intravenous 5 mg/kg, plasma
[11] = ICR, mouse, in vivo, iv, 5 mg/kg

## CN[C@H](CC(C)C)C(=O)N[C@H]1C(=O)N[C@@H](CC(N)=O)C(=O)N[C@H]2C(=O)N[C@H]3C(=O)N[C@H](C(=O)N[C@H](C(=O)O)c4cc(O)cc(O)c4-c4cc3ccc4O)[C@H](O[C@H]3C[C@](C)(N)[C@@H](O)[C@H](C)O3)c3ccc(c(Cl)c3)Oc3cc2cc(c3O[C@@H]2O[C@H](CO)[C@@H](O)[C@H](O)[C@H]2O[C@H]2C[C@](C)(NCc3ccc(-c4ccc(Cl)cc4)cc3)[C@@H](O)[C@H](C)O2)Oc2ccc(cc2Cl)[C@H]1O [Oritavancin drug substance, oritavancin]
[1]; [10]
  CL tot: 0.989 ± 0.049 mL/min/kg
  T1/2: 2.2 ± 1.3 h
[2]; 0.5 hour after administration
  Kidney Concentration: 10300 ± 1090 ng/mL
  Liver Concentration: 14800 ± 1230 ng/mL
  Lung Concentration: 15100 ± 563 ng/mL
  Plasma Concentration: 34400 ± 4550 ng/mL
[2]; 2 hours after administration
  Kidney Concentration: 8720 ± 538 ng/mL
  Liver Concentration: 24900 ± 1400 ng/mL
  Lung Concentration: 10100 ± 1010 ng/mL
  Plasma Concentration: 14900 ± 1710 ng/mL
[2]; 24 hours after administration
  Kidney Concentration: 4090 ± 462 ng/mL
  Liver Concentration: 38500 ± 2780 ng/mL
  Lung Concentration: 3790 ± 388 ng/mL
  Plasma Concentration: 63.9 ± 12.0 ng/mL
[2]; kidney/plasma concentration ratio, 0.5 hour
  Kidney Kp: 0.30 ± 0.04
[2]; kidney/plasma concentration ratio, 2 hours
  Kidney Kp: 0.59 ± 0.05
[2]; kidney/plasma concentration ratio, 24 hours
  Kidney Kp: 66.12 ± 17.05
[2]; liver/plasma concentration ratio, 0.5 hour
  Liver Kp: 0.44 ± 0.08
[2]; liver/plasma concentration ratio, 2 hours
  Liver Kp: 1.68 ± 0.10
[2]; liver/plasma concentration ratio, 24 hours
  Liver Kp: 611.35 ± 72.9
[2]; lung/plasma concentration ratio, 0.5 hour
  Lung Kp: 0.44 ± 0.07
[2]; lung/plasma concentration ratio, 2 hours
  Lung Kp: 0.68 ± 0.09
[2]; lung/plasma concentration ratio, 24 hours
  Lung Kp: 61.19 ± 15.12
[3]; S. aureus ATCC700787, 1000 cfu/spot
  minimum inhibitory concentration (MIC): 4 µg/mL and 2 µg/mL
[4]
  minimum inhibitory concentration (MIC): 4 µg/mL and 2 µg/mL
[5]
  minimum inhibitory concentration (MIC): 2 µg/mL and 1 µg/mL
[6]
  minimum inhibitory concentration (MIC): 2 µg/mL and 1 µg/mL
[7]
  minimum inhibitory concentration (MIC): 2 µg/mL (≈ 1.12 µM)
[8]; E. faecium SRM1101, 1000 cfu/spot
  minimum inhibitory concentration (MIC): 2 µg/mL and 4 µg/mL

## CCCCCCCCCCNCCN[C@@]1(C)C[C@H](O[C@H]2[C@H](Oc3c4cc5cc3Oc3ccc(cc3Cl)[C@@H](O)[C@@H]3NC(=O)[C@H](NC(=O)[C@@H]5NC(=O)[C@H](CC(N)=O)NC(=O)C(NC(=O)[C@@H](CC(C)C)NC)[C@H](O)c5ccc(c(Cl)c5)O4)c4ccc(O)c(c4)-c4c(cc(O)c(CNCP(=O)(O)O)c4O)[C@@H](C(=O)O)NC3=O)O[C@H](CO)[C@@H](O)[C@@H]2O)O[C@@H](C)[C@H]1O (some centres unmarked) [Telavancin drug substance, telavancin]
[1]; [11]
  AUC(0-inf): 57200 ± 12800 ng·h/mL
  clearance: 1.52 ± 0.32 mL/min/kg
  half-life: 2.7 ± 2.7 h
[2]; Kidney Concentration, 0.5 hour after administration
  concentration at 0.5 h: 19000 ± 4110 ng/mL
[2]; Kidney Concentration, 2 hours after administration
  concentration at 2 h: 12700 ± 2470 ng/mL
[2]; Kidney Concentration, 24 hours after administration
  concentration at 24 h: 5930 ± 1600 ng/mL
[2]; Kidney Kp, kidney/plasma concentration ratio, 0.5 hour
  Kp at 0.5 h: 1.05 ± 0.23
[2]; Kidney Kp, kidney/plasma concentration ratio, 2 hours
  Kp at 2 h: 1.64 ± 0.12
[2]; Kidney Kp, kidney/plasma concentration ratio, 24 hours
  Kp at 24 h: 49.9
[2]; Liver Concentration, 0.5 hour after administration
  concentration at 0.5 h: 3780 ± 201 ng/mL
[2]; Liver Concentration, 2 hours after administration
  concentration at 2 h: 4050 ± 256 ng/mL
[2]; Liver Concentration, 24 hours after administration
  concentration at 24 h: 2340 ± 465 ng/mL
[2]; Liver Kp, liver/plasma concentration ratio, 0.5 hour
  Kp at 0.5 h: 0.21 ± 0.01
[2]; Liver Kp, liver/plasma concentration ratio, 2 hours
  Kp at 2 h: 0.53 ± 0.05
[2]; Liver Kp, liver/plasma concentration ratio, 24 hours
  Kp at 24 h: 17.2
[2]; Lung Concentration, 0.5 hour after administration
  concentration at 0.5 h: 5860 ± 208 ng/mL
[2]; Lung Concentration, 2 hours after administration
  concentration at 2 h: 2820 ± 162 ng/mL
[2]; Lung Concentration, 24 hours after administration
  concentration at 24 h: 736 ± 158 ng/mL
[2]; Lung Kp, lung/plasma concentration ratio, 0.5 hour
  Kp at 0.5 h: 0.32 ± 0.03
[2]; Lung Kp, lung/plasma concentration ratio, 2 hours
  Kp at 2 h: 0.37 ± 0.04
[2]; Lung Kp, lung/plasma concentration ratio, 24 hours
  Kp at 24 h: 5.75
[2]; Plasma Concentration, 0.5 hour after administration
  concentration at 0.5 h: 18200 ± 627 ng/mL
[2]; Plasma Concentration, 2 hours after administration
  concentration at 2 h: 7700 ± 977 ng/mL
[2]; Plasma Concentration, 24 hours after administration
  concentration at 24 h: 51.9 ± 89.9 ng/mL
[9]; S. aureus ATCC25923, 1000 cfu/spot
  minimum inhibitory concentration (MIC): 0.25 µg/mL (≈ 0.142 µM)
[9]; Staphylococcus aureus, ATCC25923, read-out: minimum inhibitory concentration (MIC), S. aureus ATCC25923, 1000 cfu/spot
  MIC: 0.5 µg/mL (≈ 0.285 µM)
[3]; Staphylococcus aureus, ATCC700787, read-out: minimum inhibitory concentration (MIC)
  MIC: 1 µg/mL (≈ 0.57 µM)
[4]
  minimum inhibitory concentration (MIC): 2 µg/mL (≈ 1.14 µM)
[4]; Staphylococcus aureus, VRS1, read-out: minimum inhibitory concentration (MIC), S. aureus VRS1, 1000 cfu/spot
  MIC: 4 µg/mL (≈ 2.28 µM)
[5]
  minimum inhibitory concentration (MIC): 0.5 µg/mL (≈ 0.285 µM)
[5]; Enterococcus faecalis, SR1004, read-out: minimum inhibitory concentration (MIC), E. faecalis SR1004, 1000 cfu/spot
  MIC: 1 µg/mL (≈ 0.57 µM)
[6]
  minimum inhibitory concentration (MIC): 2 µg/mL (≈ 1.14 µM)
[6]; Enterococcus faecalis, SR7914, read-out: minimum inhibitory concentration (MIC), E. faecalis SR7914, 1000 cfu/spot
  MIC: 4 µg/mL (≈ 2.28 µM)
[7]
  minimum inhibitory concentration (MIC): 2 µg/mL (≈ 1.14 µM)
[7]; Enterococcus faecium, SR7940, read-out: minimum inhibitory concentration (MIC), E. faecium SR7940, 1000 cfu/spot
  MIC: 4 µg/mL (≈ 2.28 µM)
[8]; Enterococcus faecium, SRM1101, read-out: minimum inhibitory concentration (MIC)
  MIC: 4 µg/mL (≈ 2.28 µM)

Reference: US20230321251A1, “LIPOSOME FORMULATION CONTAINING ANTIBACTERIAL AGENT” (priority 2020, published 2023)
